Results as given in ChEMBL document CHEMBL1201862, “PubChem BioAssay data set” (2004).
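Grown in 96-well plates, cells were treated for 48 hours with each compound at five concentrations. Insufficient inhibition: endpoint recorded as highest concentration tested. Here, GI50 denotes the concentration required for 50% inhibition of growth.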 Active and inactive are the calls of the source. Rule as the data show it: active = GI50 up to about 1.1 µM and inactive = higher.

Experiments:
Experiment in all cases: DTP human tumour cell line panel, 48 h
HT-29 = system: HT-29
RXF 393 = system: RXF 393
A549 = system: A549
UACC-257 = system: UACC-257
DU-145 = system: DU-145
SF-295 = system: SF-295
SF-539 = system: SF-539
NCI-H226 = system: NCI-H226
SNB-75 = system: SNB-75
HCT-116 = system: HCT-116
MDA-N = system: MDA-N
OVCAR-3 = system: OVCAR-3
OVCAR-8 = system: OVCAR-8
SF-268 = system: SF-268
IGROV-1 = system: IGROV-1
MDA-MB-231 = system: MDA-MB-231
M14 = system: M14
ACHN = system: ACHN
Malme-3M = system: Malme-3M
UACC-62 = system: UACC-62
OVCAR-5 = system: OVCAR-5
PC-3 = system: PC-3
COLO 205 = system: COLO 205
NCI-H460 = system: NCI-H460
CAKI-1 = system: CAKI-1
NCI-H522 = system: NCI-H522
Hs-578T = system: Hs-578T
TK-10 = system: TK-10
786-0 = system: 786-0
SNB-19 = system: SNB-19
BT-549 = system: BT-549
UO-31 = system: UO-31
HOP-62 = system: HOP-62
EKVX = system: EKVX
LOX IMVI = system: LOX IMVI
HCT-15 = system: HCT-15
HCC 2998 = system: HCC 2998
MCF7 = system: MCF7
NCI-H23 = system: NCI-H23
SK-MEL-5 = system: SK-MEL-5
SK-OV-3 = system: SK-OV-3
NCI/ADR-RES = system: NCI/ADR-RES
KM12 = system: KM12
SK-MEL-28 = system: SK-MEL-28
SW-620 = system: SW-620
HOP-92 = system: HOP-92
OVCAR-4 = system: OVCAR-4
K562 = system: K562
MOLT-4 = system: MOLT-4
A498 = system: A498
SN12C = system: SN12C
U-251 = system: U-251
MDA-MB-435 = system: MDA-MB-435
SR = system: SR
SK-MEL-2 = system: SK-MEL-2
CCRF-CEM = system: CCRF-CEM
RPMI-8226 = system: RPMI-8226
HL-60 = system: HL-60

Oc1ccc(/C=N/c2nccs2)c(O)c1
GI50 (HT-29): > 100 µM (inactive) | GI50 (RXF 393): > 100 µM (inactive) | GI50 (A549): > 100 µM (inactive) | GI50 (UACC-257): > 100 µM (inactive) | GI50 (DU-145): > 100 µM (inactive) | GI50 (SF-295): > 100 µM (inactive) | GI50 (SF-539): > 100 µM (inactive) | GI50 (NCI-H226): > 100 µM (inactive) | GI50 (SNB-75): > 100 µM (inactive) | GI50 (HCT-116): > 100 µM (inactive) | GI50 (MDA-N): > 100 µM (inactive) | GI50 (OVCAR-3): > 100 µM (inactive) | GI50 (OVCAR-8): > 100 µM (inactive) | GI50 (SF-268): > 100 µM (inactive) | GI50 (IGROV-1): > 100 µM (inactive) | GI50 (MDA-MB-231): > 100 µM (inactive) | GI50 (M14): > 100 µM (inactive) | GI50 (ACHN): > 100 µM (inactive) | GI50 (Malme-3M): > 100 µM (inactive) | GI50 (UACC-62): > 100 µM (inactive) | GI50 (OVCAR-5): > 100 µM (inactive) | GI50 (PC-3): > 100 µM (inactive) | GI50 (COLO 205): 33.3 µM (inactive) | GI50 (NCI-H460): > 100 µM (inactive) | GI50 (CAKI-1): > 100 µM (inactive) | GI50 (NCI-H522): > 100 µM (inactive) | GI50 (Hs-578T): > 100 µM (inactive) | GI50 (TK-10): > 100 µM (inactive) | GI50 (786-0): > 100 µM (inactive) | GI50 (SNB-19): > 100 µM (inactive) | GI50 (BT-549): > 100 µM (inactive) | GI50 (UO-31): > 100 µM (inactive) | GI50 (HOP-62): > 100 µM (inactive) | GI50 (EKVX): > 100 µM (inactive) | GI50 (LOX IMVI): > 100 µM (inactive) | GI50 (HCT-15): > 100 µM | GI50 (HCC 2998): 30.2 µM (inactive) | GI50 (MCF7): 64 µM (inactive) | GI50 (NCI-H23): > 100 µM (inactive) | GI50 (SK-MEL-5): > 100 µM (inactive) | GI50 (SK-OV-3): > 100 µM (inactive) | GI50 (NCI/ADR-RES): > 100 µM (inactive) | GI50 (KM12): 16 µM (inactive)

COc1cc(OC)c2c(=O)c3cccc(C)c3n(C)c2c1
GI50 (HT-29): 27.9 µM (inactive) | GI50 (RXF 393): > 100 µM (inactive) | GI50 (A549): 83.2 µM (inactive) | GI50 (SK-MEL-28): 50.1 µM (inactive) | GI50 (SW-620): > 100 µM (inactive) | GI50 (UACC-257): 43.5 µM (inactive) | GI50 (DU-145): 57.3 µM (inactive) | GI50 (HOP-92): 83.6 µM (inactive) | GI50 (SF-295): 57.7 µM (inactive) | GI50 (SF-539): 68.5 µM (inactive) | GI50 (OVCAR-4): 64 µM (inactive) | GI50 (NCI-H226): > 100 µM (inactive) | GI50 (SNB-75): 61.5 µM (inactive) | GI50 (K562): 25.8 µM (inactive) | GI50 (HCT-116): 48.3 µM (inactive) | GI50 (MDA-N): 16.6 µM (inactive) | GI50 (OVCAR-3): 74.8 µM (inactive) | GI50 (MOLT-4): 52.4 µM (inactive) | GI50 (OVCAR-8): 64.7 µM (inactive) | GI50 (A498): > 100 µM (inactive) | GI50 (SF-268): 72.6 µM (inactive) | GI50 (IGROV-1): > 100 µM (inactive) | GI50 (MDA-MB-231): > 100 µM (inactive) | GI50 (M14): 44 µM (inactive) | GI50 (ACHN): 51.3 µM (inactive) | GI50 (Malme-3M): 98.2 µM (inactive) | GI50 (UACC-62): 61.4 µM (inactive) | GI50 (OVCAR-5): > 100 µM (inactive) | GI50 (PC-3): 50.9 µM (inactive) | GI50 (COLO 205): 67 µM (inactive) | GI50 (SN12C): > 100 µM (inactive) | GI50 (NCI-H460): 94 µM (inactive) | GI50 (CAKI-1): > 100 µM (inactive) | GI50 (NCI-H522): > 100 µM (inactive) | GI50 (U-251): 84.3 µM (inactive) | GI50 (Hs-578T): 58.7 µM (inactive) | GI50 (TK-10): > 100 µM (inactive) | GI50 (786-0): > 100 µM (inactive) | GI50 (SNB-19): > 100 µM (inactive) | GI50 (BT-549): > 100 µM (inactive) | GI50 (MDA-MB-435): 50.7 µM (inactive) | GI50 (SR): 37 µM (inactive) | GI50 (HOP-62): > 100 µM (inactive) | GI50 (SK-MEL-2): 76.7 µM (inactive) | GI50 (EKVX): > 100 µM (inactive) | GI50 (LOX IMVI): 55.7 µM (inactive) | GI50 (CCRF-CEM): 36.3 µM (inactive) | GI50 (HCT-15): > 100 µM | GI50 (RPMI-8226): 17.9 µM (inactive) | GI50 (HCC 2998): > 100 µM (inactive) | GI50 (MCF7): 34 µM (inactive) | GI50 (HL-60): 30.5 µM (inactive) | GI50 (NCI-H23): > 100 µM (inactive) | GI50 (SK-MEL-5): 22.4 µM (inactive) | GI50 (SK-OV-3): > 100 µM (inactive) | GI50 (NCI/ADR-RES): 64.1 µM (inactive) | GI50 (KM12): 80 µM (inactive)
